The values that follow come from US6020006A, “Reduction of hair growth” (The Gillette Company, priority 1998, dated 2000).

Experiment [1] has as its target T1, Alkaline phosphatase (Mesocricetus auratus, UniProt A0A1U7QBN2).
T1 construct: the supernatant was used as the enzyme source; from tissue; host or cells: whole hamster flank organs, homogenized, 12,000×g supernatant
T1 sequence (A0A1U7QBN2 18-524): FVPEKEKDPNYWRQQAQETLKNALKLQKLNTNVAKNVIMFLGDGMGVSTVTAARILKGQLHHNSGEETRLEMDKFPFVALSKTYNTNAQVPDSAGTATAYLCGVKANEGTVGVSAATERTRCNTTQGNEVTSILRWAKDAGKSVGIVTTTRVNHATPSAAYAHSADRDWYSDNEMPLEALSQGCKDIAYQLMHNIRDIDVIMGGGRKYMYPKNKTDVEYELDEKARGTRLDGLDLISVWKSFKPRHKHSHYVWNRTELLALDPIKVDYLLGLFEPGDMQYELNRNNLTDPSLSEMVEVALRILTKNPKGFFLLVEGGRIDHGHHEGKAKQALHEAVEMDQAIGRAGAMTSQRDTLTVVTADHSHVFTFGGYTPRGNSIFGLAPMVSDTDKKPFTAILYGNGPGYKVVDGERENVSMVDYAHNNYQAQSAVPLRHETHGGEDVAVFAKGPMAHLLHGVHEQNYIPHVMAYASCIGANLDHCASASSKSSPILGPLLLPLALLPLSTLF
The experiment can be described thus: Alkaline phosphatase activity, hamster flank organ hair follicle enzyme. It counts as biochemical. Here is the method:
(§1) Alkaline phosphatase activity was determined using a kit supplied by Sigma Chemical Co. Whole flank organs from hamsters or isolated human hair follicles were homogenized in a Tris-sucrose buffer, pH 7.5, using a polytron. The homogenate was centrifuged at 12,000×g for 5 minutes in a microcentrifuge, and the supernatant was used as the enzyme source. The supernatant (0.1 mL) was added to a reaction mixture containing 0.5 mL substrate (p-nitophenol phosphate) and 0.5 mL reaction buffer (both reagents supplied in the kit). Inhibitors were added in a volume of 0.1 mL. Water was used as a negative control. Reaction mixtures were incubated for 30 minutes at 37° C. The reaction mixtures were then transferred to a tube containing 10 mL 0.05N NaOH. Absorbance was measured at a wavelength of 410 nm. Concentrated hydrochloric acid (0.2 mL) was added to each tube and tubes were mixed. Again, absorbance was measured at 410 nm. Absorbance values from the second measurement were substrated from the first measurement to give normalized alkaline phosphatase activity.

Experiment [2] deals with T2, Alkaline phosphatase (Homo sapiens, UniProt P05186).
T2 construct: the supernatant was used as the enzyme source; from tissue; host or cells: isolated human hair follicles, homogenized, 12,000×g supernatant
T2 sequence (P05186 18-502 limits assumed): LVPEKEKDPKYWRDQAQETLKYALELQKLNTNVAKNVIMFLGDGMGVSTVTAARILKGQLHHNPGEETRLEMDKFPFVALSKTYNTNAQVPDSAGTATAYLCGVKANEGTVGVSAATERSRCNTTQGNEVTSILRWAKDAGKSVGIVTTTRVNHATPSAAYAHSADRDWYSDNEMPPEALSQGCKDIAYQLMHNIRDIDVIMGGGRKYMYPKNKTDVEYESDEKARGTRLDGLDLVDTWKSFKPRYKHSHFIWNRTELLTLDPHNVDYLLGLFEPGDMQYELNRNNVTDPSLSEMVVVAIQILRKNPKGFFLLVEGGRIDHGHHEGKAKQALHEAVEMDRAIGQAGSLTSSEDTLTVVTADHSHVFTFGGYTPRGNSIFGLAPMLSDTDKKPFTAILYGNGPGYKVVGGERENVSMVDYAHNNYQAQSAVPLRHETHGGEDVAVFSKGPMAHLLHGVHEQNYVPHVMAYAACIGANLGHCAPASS
The experiment can be described thus: Alkaline phosphatase activity, human hair follicle enzyme. It counts as biochemical. Here is the method:
as §1

The next experiment has as its system Human hair follicles. Nature of the experiment: Human hair follicle growth assay. It counts as cell-based. As to conditions: for % Inhibition / reduction in growth rate: Day 6-Day 0, vs control. As to the method: Human hair follicles in growth phase (anagen) were isolated from face-lift tissue under a dissecting scope using a scalpel and watchmakers forceps. The skin was sliced into thin strips exposing 2-3 rows of follicles that could readily be dissected. Follicles were placed into 0.5 mL Williams E medium (Life Technologies, Gaithersburg, Md.) supplemented with […] L-glutamine, 10 μg/mL insulin, 10 ng/mL hydrocortisone, 100 units penicillin, 0.1 mg/mL streptomycin and 0.25 μg/mL amphotericin B. The follicles were incubated in 24 well plates (1 follicle/well) at 37° C. in an atmosphere of 5% CO2 and 95% air. Hair follicles were videorecorded in the 24-well plates under the dissecting scope under a power of 20×. Typically, initial recordings were made on day 0 (day follicles were placed in culture) or day 1, and again on days 7 or 8. Hair follicle lengths were assessed using an image analysis software system (Computer Eyes and NIH Image).

Experiment [3] concerns tissue nonspecific form of alkaline phosphatase. To be noted: in several species; cited from earlier work.
In experiment [4] the test system is tissue-specific form of alkaline phosphatase. To be noted: Millan, Clinica Chimica Acta. 209:123-129, 1992; cited from earlier work.

A word on the IC50: it is the concentration at which inhibition is half-maximal. For orientation: inhibition means the relative decrease from the control value, in per cent.

Turning to `[Na+].[Na+].[Na+].[O]=[V]([O-])([O-])[O-]` [Sodium Orthovanadate, sodium orthovanadate], the IC50 against Alkaline phosphatase [1] (Flank Organ, Table 3, 30 minutes at 37° C.) came out at 40 µM; at Alkaline phosphatase [1] (hamster hair follicle enzyme), 40 µM; against Alkaline phosphatase [2] (Human Hair Follicle, Table 3, 30 minutes at 37° C.), 75 µM; against Alkaline phosphatase [2] (human hair follicle enzyme), 75 µM. The “% Inhibition / reduction in growth rate” value in the experiment on Human hair follicles (0.1 mM) is recorded as 58 ± 8%; in the experiment with Human hair follicles (0.1 mM, listed as sodium orthovanadate), 58±8%. The “Hair Follicle Length Increase (mm) (Day 6-Day 0)” value with Human hair follicles (0.1 mM, control 0.77 ± .09 mm) is given as 0.32 ± .06 mm.

Regarding `N=C(N)NCCCC[C@H](N)C(=O)O` [L-homeoarginine], the “inhibition of tissue nonspecific alkaline phosphatase” value in experiment [3] is “inhibitor of the tissue nonspecific form of alkaline phosphatase in several species”.

With `N[C@@H](Cc1ccccc1)C(=O)O` [phenylalanine], the “inhibition of tissue-specific alkaline phosphatase” value in experiment [4] is reported as “inhibit the tissue-specific form of alkaline phosphatase in a stereoselective fashion in that only the L-form is active”.

`c1ccc(C2CN3CCSC3=N2)cc1` (racemic) [Tetramisole, [±]-2,3,5,6-tetrahydro-6-phenyl-imidazo [2,1-b] thiazole] displayed an IC50 on Alkaline phosphatase [1] (hamster hair follicle enzyme) of 125 µM. Besides, the “Hair Follicle Length Increase (mm) (Day 6-Day 0)” value in the experiment with Human hair follicles (0.5 mM, control 1.08 ± .25 mm) is recorded as 0.63 ± .06 mm. For the same compound, the inhibition at 500 µM in the experiment on Human hair follicles (Homo sapiens, read-out: % Inhibition of hair growth) is 42 ± 5%.

In the case of `CC(C)C[C@H](N)C(=O)O` [leucine], the “inhibition of tissue-specific alkaline phosphatase” value in experiment [4] is listed as “inhibit the tissue-specific form of alkaline phosphatase in a stereoselective fashion in that only the L-form is active”.

`N[C@@H](Cc1c[nH]c2ccccc12)C(=O)O` [tryptophan]: the “inhibition of tissue-specific alkaline phosphatase” value in experiment [4] is “inhibit the tissue-specific form of alkaline phosphatase in a stereoselective fashion in that only the L-form is active”.
